The source of these data is patent publication US20090053294A1, “Anti Mineralocorticoid Therapy of Infection” (priority 2005, published 2009).

One data set concerns the target T1, progesterone receptors (Homo sapiens, UniProt P06401).
T1 sequence (P06401 1-933): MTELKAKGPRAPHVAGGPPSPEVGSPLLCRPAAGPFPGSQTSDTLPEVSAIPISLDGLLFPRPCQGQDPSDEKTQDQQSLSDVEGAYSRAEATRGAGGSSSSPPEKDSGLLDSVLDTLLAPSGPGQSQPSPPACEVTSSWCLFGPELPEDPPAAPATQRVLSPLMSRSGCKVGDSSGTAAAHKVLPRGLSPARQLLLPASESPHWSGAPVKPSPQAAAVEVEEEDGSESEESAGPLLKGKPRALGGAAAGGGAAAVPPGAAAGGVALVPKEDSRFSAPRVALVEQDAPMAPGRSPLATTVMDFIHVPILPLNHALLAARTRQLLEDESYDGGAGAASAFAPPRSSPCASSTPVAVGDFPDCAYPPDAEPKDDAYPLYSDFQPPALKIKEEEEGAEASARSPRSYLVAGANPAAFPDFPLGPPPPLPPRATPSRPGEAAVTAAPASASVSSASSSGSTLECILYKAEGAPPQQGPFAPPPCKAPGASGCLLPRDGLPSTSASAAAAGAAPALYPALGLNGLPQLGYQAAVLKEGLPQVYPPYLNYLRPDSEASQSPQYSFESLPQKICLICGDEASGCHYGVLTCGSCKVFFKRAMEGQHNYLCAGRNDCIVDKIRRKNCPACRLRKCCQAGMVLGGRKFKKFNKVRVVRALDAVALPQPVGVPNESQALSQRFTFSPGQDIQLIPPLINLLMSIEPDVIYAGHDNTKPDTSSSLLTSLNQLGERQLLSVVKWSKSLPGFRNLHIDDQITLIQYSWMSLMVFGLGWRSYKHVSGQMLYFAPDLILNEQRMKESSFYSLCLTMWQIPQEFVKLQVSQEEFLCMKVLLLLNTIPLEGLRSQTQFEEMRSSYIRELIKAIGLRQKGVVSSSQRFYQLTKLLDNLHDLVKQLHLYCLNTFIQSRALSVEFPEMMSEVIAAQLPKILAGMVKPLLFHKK
The conditions noted are these: cited from earlier work.

For data set [1] the following is noted: 50 mg dose; cited from earlier work.
The next data set concerns HIV-1. The conditions noted are these: PBL, MOI 0.2, day 7, RT activity in supernatant.
The subject of data set [2] is fresh human monocyte-macrophages. In words: Cytotoxicity in monocyte-macrophages (XTT staining). The class given is cell-based. The settings on record: XTT staining day 7 post-infection. As to the method: (§1) For isolation of adherent cells, 3×10^6 non-PHA stimulated peripheral blood cells are resuspended in Hanks buffered saline (with calcium and magnesium) supplemented with 10% human AB serum. The cells are placed in a 96-well microtiter plate at 37° C. for 2 hours. Non-adherent cells are removed by vigorously washing six times. The adherent cells are cultured for 7 days in RPMI 1640 tissue culture medium with 15% fetal bovine serum. The cultures are carefully monitored for confluency during this incubation period. Infection of the cells is performed with monocytotropic HIV-1 isolates. High titer pools of each of these viruses are harvested from Infected cultures of peripheral blood adherent cells and frozen in 1.0 ml aliquots at […]. […] Compounds to be evaluated in the monocyte-macrophage assay are added to the monolayers shortly before infection in order to maximize the potential for identifying active compounds.
(§2) At 2 days post-infection, the medium is decanted and the cultures washed twice with complete medium in order to remove excess virus. […] Control curves are generated in each assay to accurately quantitate the amount of capsid protein in each sample. Data is obtained by spectrophotometric analysis at 450 nm using a Molecular Devices Vmax plate reader. P24 concentrations are calculated from the optical density values by use of the Molecular Device software package Soft Max.
Background: Tetrazolium assays rely on reduction of a dye to a coloured formazan, in cell work by metabolically active cells.

Data set [3] concerns monocytotropic HIV-1 isolates. In words: Anti-HIV activity in fresh human monocyte-macrophages (p24 ELISA). In kind it is cell-based. The conditions noted are these: MOI 0.1, p24 ELISA day 7 post-infection. As to the method:
as §1, §2
In general terms: An ELISA detects its analyte on a solid surface through an enzyme-linked reagent.

Data set [4] has as its system fresh human peripheral blood lymphocytes (PBL). In kind it is cell-based.
The conditions of data set [5]: in vivo; cited from earlier work.

Take `COC(=O)[C@@H]1CC2=CC(=O)CC[C@]2(C)[C@@]23O[C@@H]2C[C@@]2(C)[C@@H](CC[C@@]24CCC(=O)O4)[C@H]13` [Epoxymexrenone, epoxymexrenone]: the “binding affinity for progesterone receptors” value at progesterone receptors was “reduced”. For the same compound, in data set [1], the “Na+/K+ effect” value was “equipotent with spironolactone”.
For the compound `C[C@]12CCC(=O)C=C1C=C[C@@H]1[C@@H]2CC[C@@]2(C)[C@H]1CC[C@@]2(O)CCC(=O)O` [potassium canrenoate], in the data set with HIV-1, the “% HIV-1 levels / viral replication in T-lymphocyte cultures” value was “decreased in a dose dependent manner”. Further, the “cell viability in macrophages” value in data set [2] was “little effect on cell viability”. Besides, in data set [3], the “HIV-1 levels in macrophages” value is listed as “decreased in a dose dependent fashion”. Besides, the “health / cell growth of T-lymphocyte cultures” value in data set [4] is “remain healthy at all concentrations”.
On to `CC(=O)S[C@@H]1CC2=CC(=O)CC[C@]2(C)[C@H]2CC[C@@]3(C)[C@@H](CC[C@@]34CCC(=O)O4)[C@H]12` [spironolactone, 17-hydroxy-7-alpha-mercapto-3oxo-17-alpha-pregn-4ene-21-carboxylic acid gamma-lactone acetate], for which the extent of metabolism result in data set [5] is “extensively metabolised”. Moreover, in the data set on HIV-1, the “% HIV-1 levels / viral replication in T-lymphocyte cultures” value is “decreased in a dose dependent manner”. Besides, in data set [4], the “health / cell growth of T-lymphocyte cultures” value is reported as “remain healthy at all concentrations”.
